Two molecules from paper PMC11720742, “The Ivermectin Related Compound Moxidectin Can Target Apicomplexan Importin α and Limit Growth of Malarial Parasites” (Cells, 2025) can be followed below.

One series deals with P. falciparum 3D7 strain. Nature of the series: Drug susceptibility assay for P. falciparum using HRP2 sandwich ELISA. Type of series: cell-based. The settings on record: read-out: IC50 inhibition of P. falciparum parasites in culture. How it is done: The P. falciparum 3D7 strain was cultured and maintained according to the standard procedures with minor modifications. Cultures were maintained in RPMI 1640 (GibcoTM, Waltham, MA, USA) supplemented with 0.5% Albumax (GibcoTM), 50 mg/L hypoxanthine (Sigma-Aldrich), 2 gm/L D-glucose (Sigma-Aldrich), 2 gm/L sodium bicarbonate (Sigma-Aldrich), and 56 mg/L of gentamicin (Abbott, Chicago, IL, USA). Blood for parasite cultures was procured from volunteer blood donors with approval from the Institute Ethical Committee.
Samples from the continuous culture of P. falciparum were synchronised to obtain predominant rings of 0.25% parasitemia at 3% haematocrit. Compounds were made at a stock concentration of 10 mM in 100% DMSO, with the FDA-approved antimalarial dihydroartemisinin (a kind gift from IPCA Laboratories, Mumbai, India) as a control. Compound dilutions were made in RPMI 1640 to obtain the desired final test concentrations for the IC50 analysis.
The HRP2-sandwich ELISA assay was performed according to the standard protocol. Briefly, the PfHRP2 protein concentration in the culture wells, indicative of the level of parasitemia, is measured using a sandwich ELISA technique. Serial 2-fold dilutions of compounds (25 µL/well) were manually dispensed into standard 96-well microculture plates (Eppendorf). Subsequently, 200 µL of P. falciparum culture at 0.25% parasitemia (3% haematocrit) was added to each well. The plates were then incubated for 72 h at 37 °C in 5% CO2 in a humidified incubator. Plates were then subjected to freeze–thaw to achieve complete haemolysis. PfHRP2 levels in control and test samples were measured using a horseradish peroxidase enzyme-linked immunosorbent assay at 450 nm. GraphPad Prism 9.2.0 was used to perform non-linear regression analysis to determine the IC50 values.
(§1) Non-linear regression analysis was performed in GraphPad Prism 9.2.0 (San Diego, CA, USA) to fit four parameter dose–response curves using the formula: y = a + ((b − a)/(1 + 10^(Log(c) − x) × d)), where a and b are the minimum and maximum asymptotes respectively, c is the half-maximal inhibitory concentration value (IC50), and d is the slope at the steepest part of the curve (the Hill slope).
On the technique in general: In an ELISA, binding on a coated surface is turned into a signal by an enzyme label.

For series [1], the target named is T1, TgIMPα (Toxoplasma gondii, UniProt A0A125YID0). Nature of the series: Intrinsic tryptophan fluorescence assay, TgIMPα. Type of series: binding. How it is done:
(§2) Tryptophan fluorescence spectroscopy experiments were performed using a JASCO Fluorescence Spectrophotometer (JASCO, Hachioji, Tokyo, Japan) (0.5 mL quartz cuvette), with a fixed excitation wavelength of 295 nm and emission spectra collected between 310 and 400 nm with a slit width of 5 nm at 25 °C. Increasing concentrations of compounds in DMSO were incubated with the IMPαs (1 µM) in PBS for 5 min at room temperature prior to measurement. Data from three independent experiments were analysed using GraphPad Prism 10 (San Diego, CA, USA). Non-linear regression analysis was used to fit the one-site binding curves using the equation: y = Bmax * x/(Kd + x), where Bmax represents the maximum binding capacity and Kd is the dissociation constant, reflecting the concentration of ligand at which half-maximal binding is achieved.

Series [2] has as its target T2, PfIMPα (Plasmodium falciparum, UniProt Q8IAW0). Nature of the series: Intrinsic tryptophan fluorescence assay, PfIMPα. Type of series: binding. The protocol:
as §2

Series [3] has as its target T1, TgIMPα. Nature of the series: Far-UV CD spectroscopy, TgIMPα. Type of series: binding. As to conditions: 30 or 80 μM compound. How it is done: (§3) CD spectroscopy experiments were carried out to assess direct binding of moxidectin and ivermectin to different IMPαs as described. CD spectra at […] protein concentration were recorded from 200–260 nm using a Jasco CD spectrometer (Jasco, Easton, MD, USA) in the absence and presence of 30 or 80 μM ivermectin or moxidectin, with percentage α-helix content estimated from the ellipticity at 222 nm as described using the CD Multivariate secondary structure estimation analysis program.

The target of series [4] is T3, MmIMPα (Mus musculus, UniProt P52293).
T3 construct: GST; made in house
Nature of the series: Far-UV CD spectroscopy, MmIMPα. Type of series: binding. The settings on record: 30 or 80 μM compound. How it is done: as §3

Another series addresses PfIMPα:TGS1-NLS-GFP (Plasmodium falciparum, UniProt Q8IAW0). Nature of the series: AlphaScreen binding assay, inhibition of PfIMPα binding to TGS1-NLS-GFP. On the set-up: species or system P. falciparum. On the technique in general: Alpha assays give light when donor and acceptor beads are brought close together.
Series [5] is described as follows: MTT assay for host cell cytotoxicity. It is filed as cell-based. As to conditions: human, HFF cells (freshly confluent), mean ± SD (n = 2). The protocol:
The MTT assay was used to measure the cytotoxicity of the small molecules against the HFF cells as described. Briefly, freshly confluent HFF cells were incubated for 48 h in a 96-well culture plate at 37 °C in a humidified incubator (5% CO2 atmosphere) in the presence of increasing concentrations of compounds (total volume 200 uL). A 10 μL quantity of MTT reagent (Sigma Aldrich) prepared in complete DMEM medium was then added to each well, and incubation continued for a further 3 h. 150 μL of the medium containing the MTT reagent was then removed from each well and replaced with 150 μL DMSO. Plates were then incubated room temperature in the dark for 20 min, after which absorbance for each well was measured at 570 nm. Data were analysed in GraphPad Prism 9 software.
In general terms: Tetrazolium dyes change colour on reduction, which living cells bring about.

The next series has as its target PfIMPα:MmIMPβ1 (Plasmodium falciparum, UniProt Q8IAW0). Nature of the series: AlphaScreen binding assay, inhibition of PfIMPα binding to MmIMPβ1. The protocol: (§4) IC50 analysis was performed in quadruplicate using an AlphaScreen binding assay as previously, using bacterially expressed glutathione S-transferase (GST)-C-terminally tagged PfIMPα and TgIMPα proteins, as well as SV40 T-ag-NLS-GFP fusion protein and MmIMPβ1 [11, 41]. As previously, nickel-acceptor and streptavidin-donor beads were used. The AlphaScreen signal was measured on a Perkin Elmer plate reader, and IC50 plots drawn using GraphPad Prism 9.0.2 (San Diego, CA, USA).
as §1

Series [6] addresses T3, MmIMPα. Nature of the series: Intrinsic tryptophan fluorescence assay, MmIMPα. It is filed as binding. As to conditions: pooled, mean ± SEM (n = 3); IMPα 1 µM, 340 nm. How it is done: as §2
For a further series, the target named is TgIMPα:T-ag-NLS-GFP (Toxoplasma gondii, UniProt A0A125YID0). Nature of the series: AlphaScreen binding assay, inhibition of TgIMPα binding to T-ag-NLS-GFP. The protocol: as §4, §1
TgIMPα:T-ag-NLS-GFP, sequence (A0A125YID0 entry or part of it): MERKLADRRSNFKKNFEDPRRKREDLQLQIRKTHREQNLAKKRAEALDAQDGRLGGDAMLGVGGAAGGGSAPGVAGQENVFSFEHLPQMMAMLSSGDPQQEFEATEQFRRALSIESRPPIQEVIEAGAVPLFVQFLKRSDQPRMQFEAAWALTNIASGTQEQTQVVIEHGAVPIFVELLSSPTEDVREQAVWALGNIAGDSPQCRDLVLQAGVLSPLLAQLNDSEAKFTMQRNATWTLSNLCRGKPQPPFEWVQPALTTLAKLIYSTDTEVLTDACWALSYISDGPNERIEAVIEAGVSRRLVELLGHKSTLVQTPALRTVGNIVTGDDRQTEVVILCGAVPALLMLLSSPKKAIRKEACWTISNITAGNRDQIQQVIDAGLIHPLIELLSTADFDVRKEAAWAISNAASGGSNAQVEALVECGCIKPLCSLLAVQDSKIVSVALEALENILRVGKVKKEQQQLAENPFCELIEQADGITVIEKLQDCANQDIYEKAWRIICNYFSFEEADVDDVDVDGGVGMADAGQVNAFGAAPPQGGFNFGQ
Series [7] has as its target T2, PfIMPα. Nature of the series: Far-UV CD spectroscopy, PfIMPα. It is filed as binding. As to conditions: 30 or 80 μM compound. How it is done:
as §3

The next series has as its target T4, MmΔIBBIMPα:T-ag-NLS-GFP (Mus musculus, UniProt P52293).
T4 construct: made in house
Nature of the series: AlphaScreen binding assay, inhibition of MmΔIBBIMPα binding to T-ag-NLS-GFP.

The test system of series [8] is T. gondii RH strain expressing a luciferase reporter (RH-Fluc) tachyzoites. Nature of the series: T. gondii tachyzoite growth inhibition assay (luciferase) in HFF host cells. It is filed as cell-based. As to conditions: 48 h, luminescence, mean ± SD (n = 3). The protocol:
A T. gondii RH strain expressing a luciferase reporter (RH-Fluc) was used to assess the effect of the inhibitors on growth as described. T. gondii tachyzoites were maintained and cultured at 37 °C in 5% CO2 in a humidified incubator using primary human foreskin fibroblasts (HFF, ATCC) maintained in Dulbecco’s modified Eagle medium (DMEM) (GibcoTM, Waltham, MA, USA) supplemented with 3.7 g/L sodium bicarbonate and 2.38 g/L HEPES, 10% Cosmic Calf serum (HycloneTM, Logan, UT, USA) and 20 mg/L gentamicin [46, 47]. Growth inhibition was monitored by luminescence, where 100 μL of culture medium without or with inhibitors, followed by 100 µL of DMEM containing 5000 parasites, were added to confluent monolayers of HFF cells in 96-well culture dishes (Eppendorf, Hamburg, Germany). After 48 h, 150 µL of the culture medium was discarded from each well, and 10 µL lysis buffer was added to lyse the parasites, followed by 50 μL of 2× luciferase assay reagent (Promega, Madison, WI, USA). Luminescence was then measured directly for 10 s using a Varioskan™ LUX multimode microplate reader (Thermo Fisher Scientific, Waltham, MA, USA). […]

The target in another series is TgIMPα:MmIMPβ1 (Toxoplasma gondii, UniProt A0A125YID0). Nature of the series: AlphaScreen binding assay, inhibition of TgIMPα binding to MmIMPβ1. How it is done: as §4, §1
TgIMPα:MmIMPβ1, sequence (P70168 whole entry): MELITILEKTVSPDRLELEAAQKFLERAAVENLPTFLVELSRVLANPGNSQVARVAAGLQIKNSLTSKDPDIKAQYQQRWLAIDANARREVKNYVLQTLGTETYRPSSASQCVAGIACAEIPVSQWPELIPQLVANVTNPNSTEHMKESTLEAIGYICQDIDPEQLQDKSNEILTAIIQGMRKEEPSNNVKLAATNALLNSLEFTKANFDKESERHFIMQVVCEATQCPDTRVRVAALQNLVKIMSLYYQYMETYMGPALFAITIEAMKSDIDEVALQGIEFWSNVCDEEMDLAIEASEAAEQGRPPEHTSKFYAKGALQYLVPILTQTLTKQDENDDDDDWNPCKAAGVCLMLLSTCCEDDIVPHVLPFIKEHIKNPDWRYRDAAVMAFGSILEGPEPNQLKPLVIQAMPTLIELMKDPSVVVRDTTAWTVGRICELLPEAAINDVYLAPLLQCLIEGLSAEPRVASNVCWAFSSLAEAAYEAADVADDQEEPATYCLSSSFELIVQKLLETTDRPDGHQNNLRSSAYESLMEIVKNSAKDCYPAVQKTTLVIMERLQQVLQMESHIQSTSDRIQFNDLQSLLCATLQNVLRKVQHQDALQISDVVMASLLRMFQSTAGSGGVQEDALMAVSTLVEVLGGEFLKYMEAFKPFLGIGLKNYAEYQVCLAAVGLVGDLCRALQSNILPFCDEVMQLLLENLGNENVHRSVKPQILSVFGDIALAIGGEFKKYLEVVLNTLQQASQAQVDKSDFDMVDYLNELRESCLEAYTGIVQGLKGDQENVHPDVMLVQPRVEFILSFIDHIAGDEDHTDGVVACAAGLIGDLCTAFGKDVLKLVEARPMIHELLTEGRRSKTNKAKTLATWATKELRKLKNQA
TgIMPα:MmIMPβ1, sequence (A0A125YID0 entry or part of it): as the sequence (A0A125YID0 entry or part of it) above
The next series has as its target T5, MmIMPα:MmIMPβ1 (Mus musculus, UniProt P52293).
T5 construct: GST; made in house
Nature of the series: AlphaScreen binding assay, inhibition of MmIMPα binding to MmIMPβ1.

Where [9] appears, read: Plasmodium falciparum, 3D7, 72 h, asexual stages, pooled, mean ± SD (n = 3).
Where [10] appears, read: Plasmodium falciparum, 3D7, 72 h, single typical experiment of Figure 5, duplicate.
Setting [11] is: pooled, mean ± SEM (n = 3), IMPα 1 µM, 340 nm.
Where [12] appears, read: single typical set of measurements, Figure 4b.
The mark [13] stands for this setting: single experiment of Figure 1b, quadruplet wells.
[14] abbreviates: pooled, mean ± SEM (n = 3), MmIMPβ1 30 nM, IMPα 30 nM.
The mark [15] stands for this setting: single typical experiment of Figure 2, quadruplet wells.

Values joined by “and” are separate entries in the source; they are usually repeats but may differ in a detail not shown here. Equal entries are not always repeated. Where two headings read alike, the source gives them in different places.

T1 sequence (A0A125YID0 entry or part of it): as above
T2 sequence (Q8IAW0 entry or part of it): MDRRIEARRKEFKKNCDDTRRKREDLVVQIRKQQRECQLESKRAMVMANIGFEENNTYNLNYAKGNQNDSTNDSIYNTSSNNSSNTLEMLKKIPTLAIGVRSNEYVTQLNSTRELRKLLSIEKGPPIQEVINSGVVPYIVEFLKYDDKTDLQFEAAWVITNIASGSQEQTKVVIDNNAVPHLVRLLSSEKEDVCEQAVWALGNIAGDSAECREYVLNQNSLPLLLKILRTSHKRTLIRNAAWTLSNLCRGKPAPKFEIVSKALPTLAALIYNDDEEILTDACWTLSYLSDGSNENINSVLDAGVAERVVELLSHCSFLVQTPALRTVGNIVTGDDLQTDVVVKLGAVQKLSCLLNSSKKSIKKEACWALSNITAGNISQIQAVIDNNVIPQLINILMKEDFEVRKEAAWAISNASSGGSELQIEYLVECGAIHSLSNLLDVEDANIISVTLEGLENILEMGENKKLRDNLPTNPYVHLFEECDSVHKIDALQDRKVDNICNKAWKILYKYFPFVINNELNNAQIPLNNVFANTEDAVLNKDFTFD
PfIMPα:MmIMPβ1, sequence (Q8IAW0 entry or part of it): as above
PfIMPα:MmIMPβ1, sequence (P70168 whole entry, further chain, the tested form may be a part): as the sequence (P70168 whole entry) above
PfIMPα:TGS1-NLS-GFP, sequence (Q8IAW0 entry or part of it): as the sequence (Q8IAW0 entry or part of it) above

One may read the IC50 as the concentration needed to halve the response being measured. On to `C[C@H]1[C@@H](O)O[C@@H]2O[C@@]3(C)CC[C@H]4[C@H](C)CC[C@@H]1[C@@]24OO3` [DHA, dihydroartemisinin], for which the IC50 in the series with P. falciparum 3D7 strain (setting [9]) worked out at 0.001 ± 0.0005 µM; in the series on P. falciparum 3D7 strain (setting [10]), 0.0007 µM.
As a reminder, the Kd is the concentration at which binding is half-saturated. Higher therefore signals weaker binding. One may read the CC50 as the concentration that lowers cell viability or growth by half. A lower CC50 goes with harm at low concentration. For `CO/N=C1\C[C@]2(C[C@@H]3C[C@@H](C/C=C(\C)C[C@@H](C)/C=C/C=C4\CO[C@@H]5[C@H](O)C(C)=C[C@@H](C(=O)O3)[C@]45O)O2)O[C@H](/C(C)=C/C(C)C)[C@H]1C` [Moxidectin, moxidectin], the Kd at TgIMPα [1] (setting [11]) was found to be 19 ± 2.2 µM; at TgIMPα [1] (setting [12]), 19.3 µM; on PfIMPα [2] (setting [11]), 7.8 ± 1.2 µM; at PfIMPα [2] (setting [12]), 8.3 µM; on MmIMPα [6] it was 4.1 ± 0.2 µM. Moreover, the “Effect on α-helicity of TgIMPα (CD spectra)” value on TgIMPα [3] is given as “concentration-dependent reduction in α-helicity”. The “Effect on α-helicity of MmIMPα (CD spectra)” value at MmIMPα [4] was “concentration-dependent reduction in α-helicity”. Besides, the IC50 on PfIMPα:TGS1-NLS-GFP (pooled, mean ± SEM (n = 3), IMPα 5 nM, NLS protein 30 nM) is 4.8 ± 0.4 µM; on PfIMPα:TGS1-NLS-GFP (setting [13]) it was 4.6 µM; on PfIMPα:MmIMPβ1 (setting [14]) it was 3.4 ± 0.4 µM; at PfIMPα:MmIMPβ1 (setting [15]) it was 3.8 µM; in the series with P. falciparum 3D7 strain (setting [9]), 1 µM; with P. falciparum 3D7 strain (setting [10]) it was 0.8 µM. Further, the IC50 in the series on P. falciparum 3D7 strain (asexual stages, 72 h, pooled, mean ± SD (n = 3)) turned out to be 0.9 ± 0.1 µM; at TgIMPα:T-ag-NLS-GFP (pooled, mean ± SEM (n = 3), IMPα 5 nM, NLS protein 30 nM, read-out: IC50 inhibition of TgIMPα:Tag-NLS-GFP binding), 3.8 ± 0.8 µM; at TgIMPα:T-ag-NLS-GFP (setting [13]), 3.6 µM; at MmΔIBBIMPα:T-ag-NLS-GFP (pooled, mean ± SEM (n = 3), IMPα 5 nM, NLS protein 30 nM, read-out: IC50 inhibition of MmΔIBBIMPα:Tag-NLS-GFP binding) it was 3.6 ± 0.5 µM; at MmΔIBBIMPα:T-ag-NLS-GFP (setting [13]), 2.8 µM; in series [8] it was 35 ± 3.1 µM. Also, the IC50 in [8] (Toxoplasma gondii) is 30 to 35 µM; on TgIMPα:MmIMPβ1 (setting [14]), 2.7 ± 0.2 µM; at TgIMPα:MmIMPβ1 (setting [15]), 3.2 µM; at MmIMPα:MmIMPβ1 (setting [14]), ~4 µM and 4 µM; on MmIMPα:MmIMPβ1 (setting [15]), 4.7 µM. This molecule also yielded a CC50 at 48 h in series [5] of about 10 µM. In addition, the “Effect on α-helicity of PfIMPα (CD spectra)” value at PfIMPα [7] is listed as “concentration-dependent reduction in α-helicity”.
